Consider three compounds from US10214542B2, “Modified macrocyclic compounds” (BAYER PHARMA AKTIENGESELLSCHAFT, priority 2015, dated 2019).

Some results are limits rather than exact numbers.

One assay concerns MOLM-13 cells. In words: Proliferation assay, Cell Titre-Glo viability (Method 3). Format: cell-based. The following applies: Homo sapiens; MOLM-13, 72-hour exposure; read-out: Inhibition of MOLM-13 cell proliferation IC50. As for the experimental part:
(§1) A2780 human ovarian carcinoma cells (ECACC #93112519) and non-adherent MOLM-13 human acute myeloid leukemia cells (DSMZ ACC 554) were seeded at a density of 3,000 cell/well (A2780) or 5,000 cells/well (MOLM-13) in a 96-well multititer plate in 150 μL of growth medium supplemented 10% fetal calf serum. After 24 hours, cell viability of one plate (zero-point plate) was determined with the Cell Titre-Glo Luminescent Cell Viability Assay (Promega), while the medium of the other plates was supplemented with the test substances in various concentrations (0 μM, as well as in the range of 0.0001-10 μM; the final concentration of the solvent dimethyl sulfoxide was adjusted to 0.1%) using a Hewlett-Packard HP D300 Digital Dispenser. Cell viability was assessed after 72-hour exposure with the Cell
(§2) Titre-Glo Luminescent Cell Viability Assay (Promega). IC50 values (inhibitory concentration at 50% of maximal effect) were determined by means of a 4 parameter fit on measurement data which were normalized to vehicle (DMSO) treated cells (=100%) and measurement readings taken immediately before compound exposure (=0%).

For another assay, the target named is T1, CDK9/CycT1 (Homo sapiens, UniProt P50750).
T1 construct: Recombinant full-length His-tagged human CDK9 and CycT1; His; purchased Invitrogen PV4131; host or cells: insect cells
T1 sequence (P50750 whole entry): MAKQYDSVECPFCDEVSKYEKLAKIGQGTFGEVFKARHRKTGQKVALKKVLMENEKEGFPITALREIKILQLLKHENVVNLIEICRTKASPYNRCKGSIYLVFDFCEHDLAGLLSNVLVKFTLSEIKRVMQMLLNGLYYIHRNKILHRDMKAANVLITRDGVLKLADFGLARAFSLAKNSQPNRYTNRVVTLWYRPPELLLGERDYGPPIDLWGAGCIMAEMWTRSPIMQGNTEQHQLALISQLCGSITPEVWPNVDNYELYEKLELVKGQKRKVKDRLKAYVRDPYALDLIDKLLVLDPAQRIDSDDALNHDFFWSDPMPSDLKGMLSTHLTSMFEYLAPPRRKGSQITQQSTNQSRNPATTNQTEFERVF
T1 sequence (O60563 whole entry partner): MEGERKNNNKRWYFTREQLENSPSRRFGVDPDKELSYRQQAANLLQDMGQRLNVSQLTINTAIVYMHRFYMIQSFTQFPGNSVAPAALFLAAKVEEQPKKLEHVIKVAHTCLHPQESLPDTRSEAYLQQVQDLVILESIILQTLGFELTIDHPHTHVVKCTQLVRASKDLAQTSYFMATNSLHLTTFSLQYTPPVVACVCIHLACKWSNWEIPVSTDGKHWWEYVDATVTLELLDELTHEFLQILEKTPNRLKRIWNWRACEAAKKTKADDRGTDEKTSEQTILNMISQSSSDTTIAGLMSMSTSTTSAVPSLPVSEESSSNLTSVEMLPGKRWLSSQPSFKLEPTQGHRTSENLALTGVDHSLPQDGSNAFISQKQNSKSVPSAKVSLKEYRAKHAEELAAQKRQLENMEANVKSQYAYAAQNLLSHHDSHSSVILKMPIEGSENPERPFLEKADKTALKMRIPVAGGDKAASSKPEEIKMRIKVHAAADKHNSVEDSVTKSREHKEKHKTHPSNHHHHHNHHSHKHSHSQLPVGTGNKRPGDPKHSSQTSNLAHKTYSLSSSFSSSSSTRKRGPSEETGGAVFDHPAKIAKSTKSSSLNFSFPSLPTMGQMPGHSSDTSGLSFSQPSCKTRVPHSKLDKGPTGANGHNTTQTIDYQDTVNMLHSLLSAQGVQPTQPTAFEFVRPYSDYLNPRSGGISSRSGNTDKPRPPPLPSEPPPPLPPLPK
Put plainly: CDK9/CycT1 high ATP kinase assay (TR-FRET, Method 1b). Format: biochemical. The conditions noted are these: 2 mM ATP; for IC50: Method 1b; for Selectivity high ATP CDK9 over high ATP CDK2: IC50 (high ATP CDK2)/IC50 (high ATP CDK9): Methods 1b and 2b. For orientation: Time-resolved FRET reads energy transfer from a long-lived donor to a nearby acceptor.

The next assay concerns A2780 cells. In words: Proliferation assay, Cell Titre-Glo viability (Method 3). Format: cell-based, human. The following applies: Homo sapiens, A2780, 72 h, A2780, 72-hour exposure; read-out: Inhibition of A2780 cell proliferation IC50. As to the method: as §1, §2

As to `CN1CCCCOc2cc(F)ccc2-c2nc(ncc2F)Nc2cc(CS(C)(=N)=O)cc1c2` (racemic) [Example 23, (rac)-16,20-difluoro-6-methyl-9-[(S-methylsulfonimidoyl)methyl]-3,4,5,6-tetrahydro-2H,12H-13,17-(azeno)-11,7-(metheno)-1,6,12,14-benzoxatriazacyclononadecine], the IC50 in the assay on MOLM-13 cells was found to be 9.8 nM; against CDK9/CycT1 it was 2.1 nM; with A2780 cells it was 13 nM. The “Selectivity high ATP CDK9 over high ATP CDK2: IC50 (high ATP CDK2)/IC50 (high ATP CDK9)” value at CDK9/CycT1 was 629.
Regarding `CSCc1cc2nc(c1)Nc1cc(c(F)cn1)-c1ccc(F)cc1OCCCN2` [Example 1, 15,19-Difluoro-8-[(methylsulfanyl)methyl]-2,3,4,5-tetrahydro-11H-10,6-(azeno)-12,16-(metheno)-1,5,11,13-benzoxatriazacyclooctadecine], the figures for the IC50 in the assay on MOLM-13 cells, against CDK9/CycT1 and in the assay with A2780 cells were 8 nM, 3.8 nM and 9 nM, respectively. The “Selectivity high ATP CDK9 over high ATP CDK2: IC50 (high ATP CDK2)/IC50 (high ATP CDK9)” value at CDK9/CycT1 is 140.
For the compound `CSCc1cc2nc(c1F)N(C)CCCCOc1cc(F)ccc1-c1cc(ncc1F)N2` [Example 12, 8,16,20-trifluoro-6-methyl-9-[(methylsulfanyl)methyl]-3,4,5,6-tetrahydro-2H,12H-11,7-(azeno)-13,17-(metheno)-1,6,12,14-benzoxatriazacyclononadecine], the IC50 in the assay on MOLM-13 cells was 100 nM; against CDK9/CycT1 it was 10 nM; in the assay with A2780 cells, > 100 nM.
